# Positions count from the first letter of the chain named.
# Tests used:
# [1] = system: maize endosperm AGPase, evolutionary mutant SH2-E (SH2E); details: presence of 3-PGA, ATP varied, Pi inhibition, NC, read-out: Km (ATP); cited from earlier work
# [2] = molecular target: T1, maize endosperm AGPase, large subunit variant GGRV (Q96G, D161G, A443R, I285V; numbering of SEQ ID NO: 20) (Zea mays, UniProt P55241+Q84PF5, A443R/D161G/I285V/Q96G); experiment: Apparent kinetic constants with 3-PGA, 37° C., GGRV; type: biochemical; details: read-out: ATP Km
# T1 sequence (P55241 46-516 A443R/D161G/I285V/Q96G): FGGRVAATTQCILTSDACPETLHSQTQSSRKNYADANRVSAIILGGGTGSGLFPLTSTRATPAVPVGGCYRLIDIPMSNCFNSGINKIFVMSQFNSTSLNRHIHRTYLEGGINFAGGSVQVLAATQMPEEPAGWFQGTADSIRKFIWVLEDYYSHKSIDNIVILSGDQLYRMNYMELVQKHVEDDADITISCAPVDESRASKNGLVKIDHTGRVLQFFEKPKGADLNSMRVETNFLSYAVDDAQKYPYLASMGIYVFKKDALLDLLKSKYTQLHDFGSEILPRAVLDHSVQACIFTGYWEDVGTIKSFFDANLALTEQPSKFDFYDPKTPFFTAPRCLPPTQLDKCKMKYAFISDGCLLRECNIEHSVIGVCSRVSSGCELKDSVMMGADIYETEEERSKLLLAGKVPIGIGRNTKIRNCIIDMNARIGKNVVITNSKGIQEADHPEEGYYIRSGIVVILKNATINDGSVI
# T1 sequence (Q84PF5 1-474): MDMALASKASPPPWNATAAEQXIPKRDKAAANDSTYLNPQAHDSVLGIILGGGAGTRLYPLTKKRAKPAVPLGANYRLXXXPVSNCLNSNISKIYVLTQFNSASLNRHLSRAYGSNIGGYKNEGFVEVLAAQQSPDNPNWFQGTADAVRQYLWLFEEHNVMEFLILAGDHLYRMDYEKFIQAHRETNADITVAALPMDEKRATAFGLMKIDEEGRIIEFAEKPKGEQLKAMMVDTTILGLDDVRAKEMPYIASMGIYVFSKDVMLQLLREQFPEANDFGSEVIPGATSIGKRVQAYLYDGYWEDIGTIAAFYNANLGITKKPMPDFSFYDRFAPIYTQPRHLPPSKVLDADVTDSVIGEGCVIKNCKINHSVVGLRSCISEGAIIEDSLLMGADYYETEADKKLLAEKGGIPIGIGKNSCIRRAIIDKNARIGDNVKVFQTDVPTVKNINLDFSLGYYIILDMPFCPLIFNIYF
# Description: The small and large subunit plasmids of maize endosperm AGPase (pMONcBt2 and pMONcSh2, respectively) (Giroux et al., 1996) were expressed in E. coli AC70R1-504 cells (Iglesias et al., 1993) as previously described (Boehlein et al., 2008).
# An endpoint assay was used to determine the rate of the AGPase reaction by coupling the formation of PPi to a decrease in NADH concentration (Boehlein et al., 2008). […] The Michaelis constants (Km) were obtained by varying one substrate in the presence of saturating concentrations of the second substrate. The activation constants were obtained by varying the activator at fixed levels of both substrates. All reactions were performed at 37° C. and mixes were prewarmed before starting the reaction with enzyme. […] The absorbance at 340 nm was monitored after 30 min and the amount of PPi produced was determined from a standard curve using PPi in complete reaction mixtures lacking AGPase. Blank samples contained complete reaction mixtures without enzyme and the change in absorbance between the blank and the reaction was used to calculate the amount of PPi produced. […]
# The apparent Michaelis constant and maximum velocity of each reaction was calculated from a V vs. S plots using nonlinear regression analysis and the following equation, v=VmaxS/(Km+S), where v is the measured velocity, Vmax is the maximum velocity, S is the substrate concentration. […]
# [3] = molecular target: T2, maize endosperm AGPase, large subunit variant GGR (Q96G, D161G, A443R; numbering of SEQ ID NO: 20) (Zea mays, UniProt P55241+Q84PF5, A443R/D161G/Q96G); experiment: Pi inhibition in the absence of 3-PGA, GGR; type: biochemical
# T2 sequence (P55241 46-516 A443R/D161G/Q96G): T1 sequence (P55241 46-516 A443R/D161G/I285V/Q96G) with V240I
# T2 sequence (Q84PF5 1-474): T1 sequence (Q84PF5 1-474)
# Protocol: Next, the kinetics of the GGR mutant were further investigated by following Pi inhibition in the presence and absence of 3-PGA. Experiments were performed by keeping both substrates constant and non-saturating at several fixed concentrations of Pi.
# A similar examination of the Pi inhibition was then followed with GGR in the absence of 3-PGA.
structure (smiles),measurement,setting,value
Nc1ncnc2c1ncn2[C@@H]1O[C@H](COP(=O)(O)OP(=O)(O)OP(=O)(O)O)[C@@H](O)[C@H]1O [ATP],Km,[1],210 µM
same,Km,[2],46 µM
same,"ATP Km, fold lower than wt AGPase",[3]; Pi inhibition assay,approximately 40 fold
same,Km,"[3]; read-out: Km (ATP), ATP varied, Pi inhibition, NC",540 µM

# Reference: US9650616B2, “Methods for increasing grain yield” (University of Florida Research Foundation, Inc., priority 2014, dated 2017)
